Source: publication PMC10206524 (European journal of medicinal chemistry, 2022)

Tests used:
Assay type in all cases: biochemical
human SIRT5 = molecular target: T1, human SIRT5 (Homo sapiens, UniProt Q9NXA8); assay: Trypsin coupled fluorescence-based inhibition assay, SIRT5; conditions: for fold increased potency against SIRT5 in comparison with 11: more potent than hit 11
T1 sequence (Q9NXA8 37-310): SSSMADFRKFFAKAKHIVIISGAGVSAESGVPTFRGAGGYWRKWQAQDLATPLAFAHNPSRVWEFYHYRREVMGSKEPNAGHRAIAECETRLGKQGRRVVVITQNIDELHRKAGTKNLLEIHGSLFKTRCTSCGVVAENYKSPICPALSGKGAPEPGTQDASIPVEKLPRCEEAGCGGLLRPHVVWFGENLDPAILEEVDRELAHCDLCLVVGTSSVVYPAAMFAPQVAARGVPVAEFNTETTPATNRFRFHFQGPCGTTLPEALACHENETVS

human SIRT1 = molecular target: T2, human SIRT1 (Homo sapiens, UniProt Q96EB6); assay: Fluorescence-based inhibition assay, SIRT1; conditions: at the highest concentration of 400 μM
T2 sequence (Q96EB6 1-747): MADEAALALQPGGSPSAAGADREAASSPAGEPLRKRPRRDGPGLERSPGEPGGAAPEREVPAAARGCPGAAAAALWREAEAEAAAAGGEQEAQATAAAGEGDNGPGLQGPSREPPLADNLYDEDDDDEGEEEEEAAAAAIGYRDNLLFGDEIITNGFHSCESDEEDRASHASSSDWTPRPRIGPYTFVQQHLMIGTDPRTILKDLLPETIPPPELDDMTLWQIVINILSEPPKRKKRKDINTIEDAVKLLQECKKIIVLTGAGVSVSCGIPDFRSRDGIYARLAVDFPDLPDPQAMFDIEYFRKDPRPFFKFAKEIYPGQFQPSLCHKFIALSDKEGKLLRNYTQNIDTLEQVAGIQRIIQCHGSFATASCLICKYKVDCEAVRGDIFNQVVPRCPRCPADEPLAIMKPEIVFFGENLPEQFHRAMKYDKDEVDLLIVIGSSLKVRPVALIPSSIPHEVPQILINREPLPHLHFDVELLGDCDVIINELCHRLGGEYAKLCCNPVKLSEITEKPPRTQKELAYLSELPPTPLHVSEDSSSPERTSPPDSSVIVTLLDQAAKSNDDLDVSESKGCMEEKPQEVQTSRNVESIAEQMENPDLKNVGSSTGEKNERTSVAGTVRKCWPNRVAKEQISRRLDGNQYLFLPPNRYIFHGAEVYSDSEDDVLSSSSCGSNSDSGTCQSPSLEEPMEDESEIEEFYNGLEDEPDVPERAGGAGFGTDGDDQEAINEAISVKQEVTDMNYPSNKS

human SIRT3 = molecular target: T3, human SIRT3 (Homo sapiens, UniProt Q9NTG7); assay: Fluorescence-based inhibition assay, SIRT3; conditions: at the highest concentration of 400 μM
T3 sequence (Q9NTG7 1-399): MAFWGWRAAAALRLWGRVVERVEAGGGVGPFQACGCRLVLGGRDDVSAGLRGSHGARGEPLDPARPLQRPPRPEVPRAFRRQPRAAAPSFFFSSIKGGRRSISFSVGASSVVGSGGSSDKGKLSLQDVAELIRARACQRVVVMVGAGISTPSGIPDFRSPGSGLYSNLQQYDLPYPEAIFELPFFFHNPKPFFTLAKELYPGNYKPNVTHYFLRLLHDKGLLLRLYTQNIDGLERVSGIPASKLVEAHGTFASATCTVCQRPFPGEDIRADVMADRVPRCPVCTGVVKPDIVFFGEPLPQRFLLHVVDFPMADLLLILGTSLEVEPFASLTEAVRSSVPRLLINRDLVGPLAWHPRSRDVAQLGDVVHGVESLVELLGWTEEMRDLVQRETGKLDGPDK

human SIRT2 = molecular target: T4, human SIRT2 (Homo sapiens, UniProt Q8IXJ6); assay: Fluorescence-based inhibition assay, SIRT2; conditions: at the highest concentration of 400 μM
T4 sequence (Q8IXJ6 1-389): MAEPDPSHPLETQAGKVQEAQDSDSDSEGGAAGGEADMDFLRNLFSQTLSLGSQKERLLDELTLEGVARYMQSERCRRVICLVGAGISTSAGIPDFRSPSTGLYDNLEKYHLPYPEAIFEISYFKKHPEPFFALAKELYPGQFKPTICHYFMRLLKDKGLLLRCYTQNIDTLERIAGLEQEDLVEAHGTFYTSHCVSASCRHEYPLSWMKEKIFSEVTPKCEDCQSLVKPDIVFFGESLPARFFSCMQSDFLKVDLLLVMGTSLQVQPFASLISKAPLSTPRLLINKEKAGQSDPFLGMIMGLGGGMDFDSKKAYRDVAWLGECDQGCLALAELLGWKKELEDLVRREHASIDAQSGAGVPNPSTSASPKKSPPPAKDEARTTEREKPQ

Compound	fold increased potency against SIRT5 in comparison with 11 (human SIRT5)	inhibition against SIRT1 (human SIRT1)	inhibition against SIRT3 (human SIRT3)	inhibition against SIRT2 (human SIRT2)	fold less potent than 11 against SIRT5 (human SIRT5; less potent than hit 11)
O=C(O)c1ccc(NC(=S)Nc2nc(-c3ccc([N+](=O)[O-])cc3)cs2)cc1O [Compound 30, 2-hydroxy-4-(3-(4-(4-nitrophenyl)thiazol-2-yl)thioureido)benzoic acid]	6 fold				
O=C(O)c1ccc(NC(=S)Nc2nc(-c3ccc([N+](=O)[O-])c(S(=O)(=O)NCc4ccccc4)c3)cs2)cc1O [Compound 43, 4-(3-(4-(3-(N-benzylsulfamoyl)-4-nitrophenyl)thiazol-2-yl)thioureido)-2-hydroxybenzoic acid]	10 fold	no inhibition	no inhibition	no inhibition	
CC(=O)Nc1ccc(-c2csc(Nc3ccc(C(=O)O)cc3)n2)cc1 [Compound 13, 4-((4-(4-acetamidophenyl)thiazol-2-yl)amino)benzoic acid]					about 8 fold

The next lines start with the values.

fold increased potency against SIRT5 in comparison with 11 (human SIRT5)	inhibition against SIRT1 (human SIRT1)	inhibition against SIRT3 (human SIRT3)	inhibition against SIRT2 (human SIRT2)	fold less potent than 11 against SIRT5 (human SIRT5; less potent than hit 11)	Compound
	no inhibitions	no inhibitions	no inhibitions		CC(=O)Nc1ccc(-c2csc(Nc3ccc(C(=O)O)c(O)c3)n2)cc1 [Compound 11, 4-((4-(4-acetamidophenyl)thiazol-2-yl)amino)-2-hydroxybenzoic acid]
2 fold	no inhibition	no inhibition	no inhibition		CC(=O)Nc1ccc(-c2csc(NC(=S)Nc3ccc(C(=O)O)c(O)c3)n2)cc1 [Compound 14, 4-(3-(4-(4-acetamidophenyl)thiazol-2-yl)thioureido)-2-hydroxybenzoic acid]
